These results are taken from US20080188761A1, “ECG-BASED IDENTIFICATION OF IMPAIRED IKR KINETICS” (priority 2006, published 2008).

This data set deals with healthy individuals. The following applies: for RR: healthy subjects, lead II, mean ± SD. Here is the method:
Our investigation is based on the analysis of 12-lead digital Holter recordings in: 49 LQT1 carriers, 25 LQT2 carriers, 37 healthy individuals off drugs and on 160 mg of sotalol, and 21 of them also on 320 mg of sotalol. The Holter recordings were used to investigate repolarization parameters and their heart rate dependency.
The study populations consisted of: 49 LQT1 carriers, 25 LQT2 carriers, and 37 healthy individuals who participated in a study focused on effect of sotalol on ECG parameters of repolarization. The group of LQTS patients included individuals with genetically identified KCNH2 (HERG) and KCNQ1 mutations, we investigated these two types of mutations since they are associated with two different ion-kinetics dysfunctions of potassium currents: the KCNH2 have been linked to a reduction of the rapidly activating repolarizing potassium current (IKr) and the KCNQ1 to the slowly activating ion current IKs. We analyzed the patients in whom digital 24-hour Holter recordings were available in order to be able to investigate heart rate dependency of their repolarization morphology. The protocol of this study included 3 days of Holter recordings: at baseline, on single 160 mg dose of sotalol and a 320 mg dose of sotalol.
All the Holter ECGs were recorded using the same type of equipment: 24-hour Holter recorder H12 (H-12 recorder, Mortara Instrument, Milwaukee, Wis.) providing digital ECG signal at a sampling frequency of 180 Hz and with 12 bit amplitude resolution (6.25 pv). In this recording, 8 original leads are recorded and the remaining 4 leads (augmented limb leads aVR, aVL, aVF and lead III) are computed. Beat classification was performed using the HScribe scanning software (HScribe, Mortara Instrument, Milwaukee, Wi.) and manually reviewed and adjusted when necessary. The information about cardiac beat annotation was exported in XML format and integrated into the COMPAS software (COMPhrensive Analysis of the repolarization Segment software, University of Rochester Medical Center Rochester, N.Y.) for the analysis of repolarization morphology.
To ensure stability of repolarization and increase signal-to-noise ratio, we adopted the following strategy: the Holter recordings were divided in sections of 10 continuous sinus beats. Only the sections preceded by stable heart rate within the previous 5 minutes were selected for the analysis. Heart rate stability required having less than 300 ms changes between continuous RR values within the 5 minutes. […] The QT interval and T-amplitude measurements were based on median beats computed from each so-called “stable representative beats”.
Based on a technique ensuring an appropriate stability of the modeling of the relationship between repolarization measurements and the RR intervals disclosed in a publication by Couderc J P, Xiaojuan X, Zerba W, Moss A J, entitled, “Assessment of the Stability of the Individual-Based Correction of QT Interval for Heart Rate”, published in the Ann. Noninvasive. Electrocardiol. 2005 January; 10(1):25-34, and herein officially incorporated by reference, we investigated two electrocardiographic measurements: the QT interval and the amplitude of the T-wave and their relationship with RR intervals.
The QT interval and T amplitude were measured on the stable representative beats from lead II. The end of T-wave was identified based on the tangent method, the crossing point between the tangent and the isoelectric line identifying the end of the T-wave, although other methods of measuring the QT interval could be used in other embodiments. The amplitude of the T-wave was measured at the maximum value of the T-wave signal in absolute value. For negative T-waves, the sign of the amplitude was conserved. For biphasic T-waves, we measured the highest portion of the signal in absolute value. No manual adjustments of measurements were performed.

Like-named read-outs stand apart in the source and are kept apart here.

`CC(C)NCC(O)c1ccc(NS(C)(=O)=O)cc1` (stereo not drawn) [sotalol] returned an RR (high dose sotalol (320 mg), n = 21, diurnal period) of 947 ± 70 ms. The RR (low dose sotalol (160 mg), n = 37, diurnal period) was found to be 893 ± 63 ms. Where the note is “in vivo”, the “Dose dependence of QT/RR slope” value is given as “not associated with sotalol dose-dependent changes”; the “Dose dependence of T-wave amplitude/RR slope” value is “dose-dependent effect on the slope”; the “Dose-dependent effect on QT interval duration, RR bin analysis” value is on record as “this trend did not reach statistical significance”; the “Mean levels of T wave amplitude off vs on sotalol” value is listed as “not significantly different”. For the same compound, under “in vivo”, the “QT interval duration, RR bin analysis, vs healthy individuals” value is “significant QT interval prolongation”; the “QTc with increasing dose of sotalol” value was “progressively prolonged”; the “T-wave amplitude across RR bins” value was “clear dose-dependent effect of the drug on T-wave amplitude exacerbated at low heart rate”.
